Test results from PubChem BioAssay AID2305 (GlaxoSmithKline (GSK), 2010).

Each compound was assayed on P. falciparum 3D7 growth, pLDH absorbance (assay: blood-stage malaria parasite growth potency – strain 3D7, dose response (AID 2305)).
For c1ccc(CN2CCC(NCc3ccccc3-c3cccc(CNC4CCCC4)c3)CC2)cc1, the IC50 was 720 nM.
Cc1ccc(Nc2nc3cc(Nc4ccnc(Nc5cccc(CS(C)(=O)=O)c5)n4)ccc3o2)cc1 showed an IC50 of 920 nM.
With C=CCn1c(SCC(=O)Nc2cc(Cl)ccc2Cl)nc2sc(C)cc2c1=O the IC50 was 70 nM.
With O=C(NCC1CCC(C(=O)NC2CCCc3ccccc32)CC1)c1ccc(O)c(-c2cccc([N+](=O)[O-])c2)c1 (configuration not stated) the IC50 was 940 nM.
With CC(=O)NCCCCC1NC2(C(=O)N(Cc3ccc(C(C)(C)C)cc3)c3ccccc32)C2C(=O)N(C3CCCCC3)C(=O)C12 (configuration not stated) the IC50 was 790 nM.
CC(C)(CNC(=O)C1CCN(CC2CCCCC2)CC1)c1nc(-c2ccc(Cl)c(O)c2)c(-c2ccncc2)[nH]1 showed an IC50 of 890 nM.
CC(=O)NCCNc1nccc(N2CCc3ncnc(Nc4ccc(OCc5ccccn5)c(Cl)c4)c3C2)n1 showed an IC50 of 820 nM.
With Cc1ccc(CCC(C)NCC(O)c2cccc(C(F)(F)F)c2)cc1 (configuration not stated) the IC50 was 560 nM.
For Nc1ccc2[nH]cc(C3CCN(CC4CCC(NC(=O)/C=C/c5ccccc5Cl)CC4)CC3)c2n1 (configuration not stated), the IC50 was 690 nM.
CC(=O)Nc1ccc(OCCN(CC(C)C)c2ccc(C(F)(F)F)c(C#N)c2)c(Cl)c1 gave an IC50 of 310 nM.
CCOC(=O)N1NC(=O)N(c2ccccc2)C1(c1ccccc1)c1ccccc1 gave an IC50 of 700 nM.
In the case of CCOC(=O)C1=C(C)NC2=C(C(=O)C(C(=O)OC)C(C)C2)C1c1cc(Br)c(OCC)c(OC)c1 (configuration not stated), the IC50 is reported as 700 nM.
For Cc1cc(N[C@@H](Cc2ccccc2)C(=O)Nc2ccccc2)nc(NCCc2ccc(F)cc2)n1, the IC50 was 860 nM.
For O=C(Nc1ccc(Br)c(Cl)c1)c1cc([N+](=O)[O-])cc2cn[nH]c12, the IC50 was 1060 nM.
COc1ccc(Nc2nccc(N3CCC(NC(=O)C(C)c4ccc(Cl)cc4)CC3)n2)cc1 (configuration not stated) was tested, and the IC50 was 930 nM.
Work on CC(=O)c1ccc(-n2ccnc2)cc1 yielded an IC50 of 850 nM.
For CCc1ccc2c(c1O)CCN(C)C2Cc1ccccc1Cl (configuration not stated), the IC50 was 250 nM.
Work on CCOc1ccc(C(=O)Nc2cc(Br)c3c(c2)CNCC3)cc1C#N yielded an IC50 of 760 nM.
COc1ccc2nc(C)cc(Nc3ccc(Oc4ccc5ccccc5c4)c(Cl)c3)c2c1 was tested, and the IC50 was 690 nM.
In the case of Cc1cc(F)ccc1[C@H]1CNCCN1C(=O)N(C)[C@@H](C)c1cc(C(F)(F)F)cc(C(F)(F)F)c1, the IC50 is reported as 230 nM.
Work on Cc1cccc2[nH]c(-c3cccc(-c4ccc(NC(=O)CN5CCN(C)CC5)cc4)c3)nc12 yielded an IC50 of 560 nM.
N#Cc1ccc(-c2ccc3nc(N4CCCN(C5CCC5)CC4)ccc3c2)cc1 was tested, and the IC50 was 1500 nM.
With CC[C@H](C)CNC(=O)c1ccnc(-c2ccc(CNC3Cc4ccccc4C3)cc2)c1 the IC50 was 570 nM.
In the case of O=c1cc(NCCCCNCc2ccc(Br)c(Br)c2)[nH]c2ccccc12, the IC50 is reported as 860 nM.
c1ccc(CNc2nc(NCCc3cnc[nH]3)nc(N3CCCC4CCCCC43)n2)cc1 (configuration not stated) showed an IC50 of 830 nM.
Cc1ccc(/C=C/C(=O)NCCCCCN2CCN(C(=O)Nc3ccc(Cl)c(C(F)(F)F)c3)CC2)cc1 showed an IC50 of 1110 nM.
In the case of CO/C(=C\C=C/c1cc2cc(Cl)c(Cl)cc2[nH]1)C(=O)NC1CC(C)(C)N(C)C(C)(C)C1, the IC50 is reported as 830 nM.
O=C(Nc1ccc(OC2CCN(Cc3ccsc3)C2)c(Cl)c1)c1ccsc1 (configuration not stated) showed an IC50 of 1020 nM.
With CC(=O)Nc1ccc(CN(Cc2ccc(F)cc2)Cc2ccc3c(c2)OCO3)cc1 the IC50 was 940 nM.
Compound COc1cc(Nc2ccnc3cc(-c4ccccn4)ccc23)cc(OC)c1OC has an IC50 of 910 nM.
In the case of O=C(N[C@@H](CC1CCCCC1)C(=O)NC1CC1)c1ccc(O)c(-c2cccc(C(F)(F)F)c2)c1, the IC50 is reported as 770 nM.
With O=C(NC1CCN(c2ccnc3ccccc23)C1)c1ccc(OC(F)(F)F)cc1 (configuration not stated) the IC50 was 1150 nM.
Compound Fc1ccc(Nc2n[nH]c(CNC3CCN(Cc4ccc(Cl)c(Cl)c4)CC3)n2)cc1 has an IC50 of 1380 nM.
COc1cccc2cc(C(=O)N[C@@H](CC(C)C)C(=O)N[C@H](/C=N/NC(=O)Cc3cccnc3)CCc3ccccc3)oc12 gave an IC50 of 950 nM.
In the case of O=C(COC(=O)c1cccc(S(=O)(=O)N2CCc3ccccc32)c1)NNC(=O)c1cccs1, the IC50 is reported as 1250 nM.
CCC1(C)N=C(N)N=C(N)N1c1ccc(Cl)cc1 (configuration not stated) was tested, and the IC50 was 160 nM.
CCCC(=O)Nc1ccc(OCCCN(Cc2ccccc2OC(F)(F)F)c2ccc(C#N)c(C(F)(F)F)c2)cc1 was tested, and the IC50 was 600 nM.
Cc1c(C)c2c(c(C)c1O)CCC(C)(CCC(=O)O)O2 (configuration not stated) showed an IC50 of 690 nM.
COc1cc(F)c2ncc(Cl)c(CCN3CCC(NCc4ccc5c(c4)NC(=O)CS5)CC3)c2c1 was tested, and the IC50 was 310 nM.
Work on Oc1ccc(CNCCCCCCNCCc2ccc(Cl)cc2)cc1O yielded an IC50 of 990 nM.
With CN1CCN(c2cc3c(cc2Cl)CCN3C(=O)Nc2ccc(NC(=O)c3ccc(C(F)(F)F)cc3)cc2)CC1 the IC50 was 510 nM.
N#Cc1ccc(CN2CCC(Oc3ccc(NC(=O)c4ccccc4)cc3Cl)CC2)cc1 showed an IC50 of 1260 nM.
With Cc1cc(NC(=O)c2cccs2)ccc1OC1CCN(Cc2ccccc2)C1 (configuration not stated) the IC50 was 890 nM.
COC(=O)C(NC(=O)NC1CCN(c2ccnc(Nc3ccc(F)cc3)n2)C1)c1ccccc1 (configuration not stated) showed an IC50 of 1050 nM.
For COc1ccc2nccc([C@@H](O)CN3CC[C@H](NCc4ccc5c(n4)NC(=O)CS5)[C@H](F)C3)c2c1, the IC50 was 910 nM.
For N#Cc1ccccc1S(=O)(=O)N1CCCC(CNC(=O)[C@H](CC2CCCCC2)NC(=O)c2cc3ccccc3s2)C1 (some centres not stated), the IC50 was 510 nM.
For Cc1cccc2[nH]c(-c3ccc(-c4cccc(CNCCCNS(C)(=O)=O)c4)cc3)nc12, the IC50 was 1220 nM.
For CC(Cc1ccc(OCc2ccccc2)cc1)Nc1nc2ccccc2c(=O)[nH]1 (configuration not stated), the IC50 was 570 nM.
Compound Cc1ncsc1CCN1C(=O)CC2(C1=O)C(=O)N(Cc1ccccc1)c1ccc(Cl)cc12 (configuration not stated) has an IC50 of 980 nM.
With FC(F)(F)c1ccc2nc(-c3ccc(-c4ccc(CN5CCN(c6cnccn6)CC5)cc4)cc3)[nH]c2c1 the IC50 was 690 nM.
In the case of Cc1[nH]nc2cc(Nc3nccc(Nc4ccc(Oc5ccccc5)cc4)n3)ccc12, the IC50 is reported as 600 nM.
O=C(Nc1ccccc1)c1cnc[nH]1 gave an IC50 of 990 nM.
CCCC(=O)NC(c1ccc(C)cc1)c1ccc2cccnc2c1O (configuration not stated) was tested, and the IC50 was 960 nM.
For COc1ccc2c(NN=Cc3ccc([N+](=O)[O-])cc3)ccnc2c1, the IC50 was 340 nM.
With COc1ccc(CN2CCC(CNCCc3ccccc3Oc3ccccc3)CC2)cc1 the IC50 was 1100 nM.
Cc1nc(-c2ccc(-c3ccc(C(=O)Nc4ccc(C(C)C)c(OCCN(C)C)c4)cc3)c(C)c2)no1 showed an IC50 of 870 nM.
In the case of CCOC(=O)NCC(=O)Nc1cccc(-c2cccc(-c3nc4ccc(C(F)(F)F)cc4[nH]3)c2)c1, the IC50 is reported as 630 nM.
O=C(N[C@@H](CC1CCCCC1)C(=O)NC1CCCc2ccccc21)c1ccc(O)c(-c2cccc([N+](=O)[O-])c2)c1 (some centres not stated) was tested, and the IC50 was 610 nM.
N#Cc1ccc(-c2ccc(C(=O)NCC3CCN(CCN4CCC(c5ccc6c(c5OCC(N)=O)CCCC6)CC4)CC3)cc2)cc1 gave an IC50 of 440 nM.
Compound CC(C)(C)c1ccc(CNC(=O)c2ccc(-c3nc4ccc(Cl)cc4[nH]3)cc2)cc1 has an IC50 of 820 nM.
O=C(Nc1ccc2c(c1)CCC2)N[C@H]1CCN(Cc2ccc(OCCCN3CCCCC3)cc2)C1 showed an IC50 of 860 nM.
Work on O=S(=O)(NC1CCC(CN2CCC(c3c[nH]c4ccccc34)CC2)CC1)c1ccc(Cl)c(Cl)c1 (configuration not stated) yielded an IC50 of 820 nM.
Work on O=C(Nc1ccc(-c2nc3ccccc3[nH]2)cc1)C1CCN(Cc2ccccc2)CC1 yielded an IC50 of 1760 nM.
In the case of O=C(NC1CCN(CC2(c3ccccc3F)CCCC2)CC1)c1ccn[nH]1, the IC50 is reported as 1000 nM.
Work on Cc1[nH]c2ccccc2c1C1=CCN(C[C@H]2C[C@@H]2C(=O)c2ccccc2)CC1 yielded an IC50 of 350 nM.
Cc1cccc2[nH]c(-c3ccc(-c4ccc(NC(=O)NCc5cccc(F)c5)cc4)s3)nc12 showed an IC50 of 890 nM.
O=C(NCCCCN1CCN(c2cccc(Cl)c2Cl)CC1)c1ccc2c(c1)CCN(C1CCC1)CC2 showed an IC50 of 750 nM.
With CC(C)OCCCNC(=O)c1nc(-c2cccc(C(F)(F)F)c2)sc1C(C)C the IC50 was 1160 nM.
Compound CCCN1CCCN(Cc2cccc(NC(=O)c3ccc(-c4ccccc4)cc3)c2)CC1 has an IC50 of 1110 nM.
In the case of COc1cc(NCCCCCNc2cc(Cl)nc3ccccc23)nc2ccccc12, the IC50 is reported as 780 nM.
For O=c1cc(NCCCNCc2cc(Br)cs2)[nH]c2ccccc12, the IC50 was 1060 nM.
Compound COc1ccc2ncc(F)c(CCN3C[C@H](CNCc4ccc5oc(=O)ccc5c4)[C@H](O)C3)c2n1 has an IC50 of 950 nM.
In the case of Cn1cc(C2CCN(CCCCCNC(=O)/C=C/c3ccc(Cl)c(Cl)c3)CC2)c2cc(O)ccc21, the IC50 is reported as 940 nM.
With O=C(O[C@@H]1CN[C@H](C#Cc2cc3c(Nc4ccc5c(cnn5Cc5ccccc5)c4)ncnc3s2)C1)N1CCCC1 the IC50 was 420 nM.
For CCN1CCN(Cc2ccc(-c3ccc(NS(=O)(=O)c4cccc5cccnc45)cc3)cc2)CC1, the IC50 was 920 nM.
In the case of O=C(Nc1ccc(Cl)cc1)c1cccc2[nH]c(C(F)(F)F)nc12, the IC50 is reported as 760 nM.
Compound COc1ccc2ncc(F)c(CCN3CCC(NCc4cnc5c(c4)NC(=O)CS5)CC3)c2c1 has an IC50 of 570 nM.
Work on Cc1ccc2sc(N3CCN(C(=O)c4ccc([N+](=O)[O-])o4)CC3)nc2c1C yielded an IC50 of 940 nM.
COc1ccc(C(=O)N[C@@H](CC(C)C)C(=O)N[C@H](/C=N/NC(=O)c2ccccc2)CCc2ccccc2)cc1OCCN1CCOCC1 showed an IC50 of 170 nM.
Work on N=c1n(Cc2ccccc2)c2ccccc2n1CC(O)c1ccc(Cl)cc1 (configuration not stated) yielded an IC50 of 880 nM.
Work on Cc1noc(C)c1-c1cccc(CNCc2cccc(-c3ccc(-c4nc5ccc(C(F)(F)F)cc5[nH]4)s3)c2)c1 yielded an IC50 of 170 nM.
Compound S=C(NCC1CCCCC1)NC1CCC(CN2CCC(c3c[nH]c4ccccc34)CC2)CC1 (configuration not stated) has an IC50 of 1110 nM.
Work on COc1ccc(NCc2cccc(-c3cccc(CNCCc4ccccc4)c3)c2)cc1 yielded an IC50 of 1050 nM.
Work on Cc1ccc(CN=C(N)NC(=O)c2nc(Cl)c(NCc3ccc(Cl)cc3)nc2N)c(C)c1 yielded an IC50 of 170 nM.
Compound CN(C)CCc1c[nH]c2ccc(C(=O)Nc3ccc(-c4ccncc4)cc3)cc12 has an IC50 of 570 nM.
For COc1ccc(F)cc1-c1ccc(C(=O)N2CCCN(c3ccc(C(F)(F)F)cn3)CC2)cc1, the IC50 was 160 nM.
COc1ccc2nccc(NCC3(O)CCN(CCc4ccc5c(c4)OCCO5)CC3)c2n1 showed an IC50 of 600 nM.
CN(C)C(CNC(=O)c1cc(-c2ccncc2)c(-c2ccc(NC(=O)Nc3ccccc3)cc2)o1)c1ccccc1 (configuration not stated) was tested, and the IC50 was 600 nM.
Work on CC(C)NCc1ccc(-c2cccc(NC(=O)c3ccc(C#N)cc3)c2)cc1 yielded an IC50 of 740 nM.
CN1CCN(c2ccc(Nc3nc(N)c4ccn(C5CCC5)c4n3)cc2)CC1 showed an IC50 of 1220 nM.
CCN(CC)CCCN(CCCN(CC)CC)c1cc(C)nc(Nc2ccc3cc(Br)ccc3c2)n1 was tested, and the IC50 was 570 nM.
Compound COc1ccc2c(NN=Cc3ccccc3[N+](=O)[O-])ccnc2c1 has an IC50 of 740 nM.
Work on O=C(NCc1ccc(Cl)c(Cl)c1)[C@H]1CNCCN1C(=O)c1ccccc1 yielded an IC50 of 950 nM.
In the case of COc1cccc(Nc2nc(NCCO)c3ccccc3n2)c1, the IC50 is reported as 150 nM.
Cn1cncc1C(=O)Nc1cccc(-c2ccc(-c3nc4ccccc4[nH]3)cc2)c1 gave an IC50 of 850 nM.
With COc1ccc2nccc([C@@H](O)CN3CCC(NCc4cnc5snnc5c4)C(F)C3)c2c1 (some centres not stated) the IC50 was 1350 nM.
CN(C)c1ccc(CN2CCCCC(NC(=O)c3cc(-c4ccccc4Cl)cs3)C2)cc1 (configuration not stated) showed an IC50 of 1060 nM.
